# Experimental data as given in ChEMBL document CHEMBL5150064 (J Med Chem, 2022).
# Active and inactive are the calls of the source. The rule behind the calls is not given here.
# How the values were obtained:
# HCC1954 [1] = test: Antitumor activity against human HCC1954 cells xenografted in mouse assessed as tumor growth inhibition at 25 mg/kg, po QD; format: functional; details: read-out: TGI
# CaV1.2 = CaV1.2 (Homo sapiens, UniProt Q13936); test: Inhibition of human CaV1.2 at 10 uM relative to control
# Homo sapiens = species on record: Homo sapiens; test: Inhibition of PI3KC2b (unknown origin) at 1 uM relative to control
# NaV1.5 = NaV1.5 (Homo sapiens, UniProt Q14524); test: Inhibition of human NaV1.5 at 10 uM relative to control
# [2] = Dissociation constant, pKa of the compound; format: physicochemical
# [3] = Antiproliferative activity against human KPL-4 cells assessed as reduction in cell viability incubated for 4 days by Celltiter-Glo luminescence assay; format: functional, cell-based; details: KPL4, 96 h
# [4] = Oral bioavailability in NCR nude mouse at 5 mg/kg measured upto 8 hrs by LC-MS/MS analysis; format: ADME, organism-based; details: in vivo
# [5] = biological target: Phosphatidylinositol 4,5-bisphosphate 3-kinase catalytic subunit alpha isoform (Homo sapiens, UniProt P42336, H1047R)
# Sequence of Phosphatidylinositol 4,5-bisphosphate 3-kinase catalytic subunit alpha isoform (P42336 whole entry H1047R, canonical isoform): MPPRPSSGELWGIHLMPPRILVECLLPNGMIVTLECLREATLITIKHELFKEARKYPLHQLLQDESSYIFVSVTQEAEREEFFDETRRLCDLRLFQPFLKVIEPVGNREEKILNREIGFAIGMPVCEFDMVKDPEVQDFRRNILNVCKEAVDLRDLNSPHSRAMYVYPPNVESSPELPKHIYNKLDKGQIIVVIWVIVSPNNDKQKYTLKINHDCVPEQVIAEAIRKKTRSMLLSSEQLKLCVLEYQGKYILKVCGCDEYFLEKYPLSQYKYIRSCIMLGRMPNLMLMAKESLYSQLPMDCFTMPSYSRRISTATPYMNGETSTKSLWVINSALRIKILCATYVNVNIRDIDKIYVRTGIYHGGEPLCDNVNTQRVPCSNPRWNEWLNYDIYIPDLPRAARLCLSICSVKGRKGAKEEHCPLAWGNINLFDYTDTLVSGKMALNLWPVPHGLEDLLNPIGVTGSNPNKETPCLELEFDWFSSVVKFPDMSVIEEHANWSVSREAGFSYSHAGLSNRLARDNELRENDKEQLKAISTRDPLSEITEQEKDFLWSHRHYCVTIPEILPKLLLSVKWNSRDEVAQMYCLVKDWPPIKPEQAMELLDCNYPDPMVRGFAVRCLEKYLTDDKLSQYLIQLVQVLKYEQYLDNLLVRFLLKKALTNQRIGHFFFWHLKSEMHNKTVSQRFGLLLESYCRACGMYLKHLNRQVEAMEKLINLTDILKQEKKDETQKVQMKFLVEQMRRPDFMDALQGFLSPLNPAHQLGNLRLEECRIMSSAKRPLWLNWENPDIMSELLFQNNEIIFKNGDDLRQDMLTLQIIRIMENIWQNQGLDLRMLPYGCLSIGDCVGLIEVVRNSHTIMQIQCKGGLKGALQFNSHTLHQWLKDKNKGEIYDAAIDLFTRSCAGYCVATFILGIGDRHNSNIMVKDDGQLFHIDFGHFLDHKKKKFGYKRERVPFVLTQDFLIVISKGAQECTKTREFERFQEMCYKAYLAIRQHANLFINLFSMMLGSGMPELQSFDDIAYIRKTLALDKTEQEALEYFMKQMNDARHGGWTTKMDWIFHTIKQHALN
# Cytochrome P450 2D6 = Cytochrome P450 2D6 (Homo sapiens, UniProt P10635); test: Inhibition of CYP2D6 (unknown origin); format: ADME
# Sequence of Cytochrome P450 2D6 (P10635 whole entry): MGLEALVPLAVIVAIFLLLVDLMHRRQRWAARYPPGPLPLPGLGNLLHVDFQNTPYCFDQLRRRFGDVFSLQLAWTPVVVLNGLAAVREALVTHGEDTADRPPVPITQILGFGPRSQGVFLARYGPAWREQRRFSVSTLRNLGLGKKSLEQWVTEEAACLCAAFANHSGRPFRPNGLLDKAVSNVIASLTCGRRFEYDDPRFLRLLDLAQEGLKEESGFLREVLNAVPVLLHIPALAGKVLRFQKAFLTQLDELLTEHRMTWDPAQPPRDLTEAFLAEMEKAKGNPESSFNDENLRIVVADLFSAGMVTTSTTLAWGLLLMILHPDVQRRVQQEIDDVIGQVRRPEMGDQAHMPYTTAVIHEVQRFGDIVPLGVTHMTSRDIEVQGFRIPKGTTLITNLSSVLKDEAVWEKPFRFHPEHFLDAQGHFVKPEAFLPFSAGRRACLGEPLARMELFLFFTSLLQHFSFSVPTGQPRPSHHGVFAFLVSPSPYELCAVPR
# [6] = Thermodynamic aqueous solubility of the compound at pH 7.4; format: physicochemical; details: read-out: Therm_solubility
# Mus musculus [7] = test: In vivo inhibition of PI3K in human HCC1954 cells xenografted in mouse at 50 mg/kg, po; format: functional, organism-based; details: TDE = time-dependent effect
# hERG (KCNH2) = hERG (KCNH2) (Homo sapiens, UniProt Q12809); test: Inhibition of human ERG at 10 uM relative to control; format: toxicity
# Sequence of hERG (KCNH2) (Q12809 whole entry): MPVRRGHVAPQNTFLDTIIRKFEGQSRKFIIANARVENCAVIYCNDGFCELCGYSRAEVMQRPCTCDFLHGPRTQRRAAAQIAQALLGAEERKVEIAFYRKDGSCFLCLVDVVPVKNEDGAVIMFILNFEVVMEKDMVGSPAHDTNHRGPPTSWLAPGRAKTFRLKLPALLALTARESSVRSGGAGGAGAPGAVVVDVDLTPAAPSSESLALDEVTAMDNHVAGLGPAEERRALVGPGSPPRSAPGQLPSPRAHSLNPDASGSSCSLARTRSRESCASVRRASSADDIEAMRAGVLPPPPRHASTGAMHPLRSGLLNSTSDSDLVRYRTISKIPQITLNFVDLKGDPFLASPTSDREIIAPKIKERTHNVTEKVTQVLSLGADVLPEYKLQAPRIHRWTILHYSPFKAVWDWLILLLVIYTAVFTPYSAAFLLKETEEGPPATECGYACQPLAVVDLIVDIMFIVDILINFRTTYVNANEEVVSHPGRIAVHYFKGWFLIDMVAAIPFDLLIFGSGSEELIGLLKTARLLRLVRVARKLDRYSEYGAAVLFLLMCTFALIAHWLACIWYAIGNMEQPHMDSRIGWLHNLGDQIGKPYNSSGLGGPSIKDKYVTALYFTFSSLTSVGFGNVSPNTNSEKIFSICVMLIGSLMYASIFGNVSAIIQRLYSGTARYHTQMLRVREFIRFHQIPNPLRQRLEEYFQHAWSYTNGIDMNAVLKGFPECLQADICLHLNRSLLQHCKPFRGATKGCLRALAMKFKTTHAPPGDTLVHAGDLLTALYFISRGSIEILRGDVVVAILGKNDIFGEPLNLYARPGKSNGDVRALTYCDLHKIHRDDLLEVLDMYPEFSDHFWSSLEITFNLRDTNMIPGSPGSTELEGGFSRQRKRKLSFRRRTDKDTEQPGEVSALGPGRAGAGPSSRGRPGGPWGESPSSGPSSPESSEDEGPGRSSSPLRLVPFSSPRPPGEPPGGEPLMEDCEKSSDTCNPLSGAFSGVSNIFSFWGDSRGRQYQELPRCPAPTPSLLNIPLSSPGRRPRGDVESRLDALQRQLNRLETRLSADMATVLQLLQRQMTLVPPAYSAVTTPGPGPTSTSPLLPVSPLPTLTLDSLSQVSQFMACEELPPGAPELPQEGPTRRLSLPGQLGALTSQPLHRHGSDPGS
# [8] = Inhibition of PI3KC2b (unknown origin); parameters: species or system Homo sapiens
# Mus musculus [9] = test: In vivo PI3K degradation in human HCC1954 cells xenografted in mouse at 50 mg/kg, po; format: functional, organism-based
# [10] = AUC in NCR nude mouse at 50 mg/kg, po measured upto 8 hrs by LC-MS/MS analysis; format: ADME, organism-based; parameters: dose 50 mg/kg, time < 8 hrs, route po; details: in vivo
# Mus musculus [11] = test: In vivo inhibition of PI3K in human HCC1954 cells xenografted in po dosed mouse; format: functional, organism-based; details: DDE = dose-dependent effect
# [12] = Thermodynamic solubility of the compound in FaSSIF; format: physicochemical; details: read-out: Therm_solubility
# [13] = Thermodynamic solubility of the compound in FaSSGF; format: physicochemical; details: read-out: Therm_solubility
# [14] = biological target: T1, Phosphatidylinositol 4,5-bisphosphate 3-kinase catalytic subunit delta isoform (Homo sapiens) (UniProt O00329); test: Inhibition of PI3Kdelta in human B-cells assessed as reduction in CD69 expression preincubated for 1 hr followed by IgM stimulation for 18 hrs by flow cytometry analysis; format: cell-based; details: B-cell
# T1 sequence (whole entry): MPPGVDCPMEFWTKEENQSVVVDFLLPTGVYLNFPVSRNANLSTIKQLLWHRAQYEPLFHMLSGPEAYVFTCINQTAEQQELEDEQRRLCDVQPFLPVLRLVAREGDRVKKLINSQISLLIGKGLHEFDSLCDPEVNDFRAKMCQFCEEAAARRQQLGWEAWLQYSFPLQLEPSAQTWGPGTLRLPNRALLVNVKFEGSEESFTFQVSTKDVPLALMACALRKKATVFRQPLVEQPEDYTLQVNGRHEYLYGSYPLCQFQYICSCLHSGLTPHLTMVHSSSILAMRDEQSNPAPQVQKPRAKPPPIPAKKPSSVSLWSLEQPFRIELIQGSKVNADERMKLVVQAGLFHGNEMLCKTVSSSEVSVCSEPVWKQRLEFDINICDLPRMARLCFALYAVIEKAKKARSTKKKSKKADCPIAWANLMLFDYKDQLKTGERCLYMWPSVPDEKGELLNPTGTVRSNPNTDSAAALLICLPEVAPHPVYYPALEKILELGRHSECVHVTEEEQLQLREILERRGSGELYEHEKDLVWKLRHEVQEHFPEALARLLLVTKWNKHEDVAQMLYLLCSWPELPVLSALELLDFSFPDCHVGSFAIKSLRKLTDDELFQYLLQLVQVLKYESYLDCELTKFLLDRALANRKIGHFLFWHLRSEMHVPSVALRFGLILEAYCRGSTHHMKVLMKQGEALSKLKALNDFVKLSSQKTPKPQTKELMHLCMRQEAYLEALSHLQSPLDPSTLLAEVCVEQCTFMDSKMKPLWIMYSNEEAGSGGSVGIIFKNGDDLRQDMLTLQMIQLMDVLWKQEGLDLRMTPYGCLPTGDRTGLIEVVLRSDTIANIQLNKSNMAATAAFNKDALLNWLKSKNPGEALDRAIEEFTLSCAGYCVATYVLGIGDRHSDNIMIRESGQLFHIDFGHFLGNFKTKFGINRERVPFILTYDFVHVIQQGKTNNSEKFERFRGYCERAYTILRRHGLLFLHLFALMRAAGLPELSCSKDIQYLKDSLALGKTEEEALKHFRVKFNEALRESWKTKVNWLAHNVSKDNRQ
# [15] = Plasma protein binding in mouse assessed as unbound fraction at 5 uM incubated for 4 hrs by equllibrium dialysis method; format: ADME, cell-free
# [16] = Clearance in Sprague-Dawley rat plasma at 1 mg/kg, iv measured upto 8 hrs by LC-MS/MS analysis; format: ADME, organism-based
# Cytochrome P450 3A4 = Cytochrome P450 3A4 (Homo sapiens, UniProt P08684); test: Inhibition of CYP3A4 (unknown origin); format: ADME
# Sequence of Cytochrome P450 3A4 (P08684 whole entry): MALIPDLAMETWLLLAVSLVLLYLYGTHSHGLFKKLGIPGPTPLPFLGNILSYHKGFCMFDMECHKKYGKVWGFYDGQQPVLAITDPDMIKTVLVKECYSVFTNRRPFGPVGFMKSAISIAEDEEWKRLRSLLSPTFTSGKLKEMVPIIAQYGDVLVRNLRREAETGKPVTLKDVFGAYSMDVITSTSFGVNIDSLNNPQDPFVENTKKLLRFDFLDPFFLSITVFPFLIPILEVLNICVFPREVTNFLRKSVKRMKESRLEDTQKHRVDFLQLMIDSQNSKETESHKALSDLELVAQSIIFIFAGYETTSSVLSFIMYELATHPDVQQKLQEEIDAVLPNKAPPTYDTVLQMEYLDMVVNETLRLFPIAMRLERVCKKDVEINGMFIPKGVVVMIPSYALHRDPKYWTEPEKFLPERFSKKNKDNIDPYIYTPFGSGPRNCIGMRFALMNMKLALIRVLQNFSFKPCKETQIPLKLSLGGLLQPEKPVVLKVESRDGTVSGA
# Cytochrome P450 1A2 = biological target: T2, Cytochrome P450 1A2 (Homo sapiens, UniProt P05177); test: Inhibition of CYP1A2 (unknown origin); format: ADME
# T2 sequence (P05177 whole entry): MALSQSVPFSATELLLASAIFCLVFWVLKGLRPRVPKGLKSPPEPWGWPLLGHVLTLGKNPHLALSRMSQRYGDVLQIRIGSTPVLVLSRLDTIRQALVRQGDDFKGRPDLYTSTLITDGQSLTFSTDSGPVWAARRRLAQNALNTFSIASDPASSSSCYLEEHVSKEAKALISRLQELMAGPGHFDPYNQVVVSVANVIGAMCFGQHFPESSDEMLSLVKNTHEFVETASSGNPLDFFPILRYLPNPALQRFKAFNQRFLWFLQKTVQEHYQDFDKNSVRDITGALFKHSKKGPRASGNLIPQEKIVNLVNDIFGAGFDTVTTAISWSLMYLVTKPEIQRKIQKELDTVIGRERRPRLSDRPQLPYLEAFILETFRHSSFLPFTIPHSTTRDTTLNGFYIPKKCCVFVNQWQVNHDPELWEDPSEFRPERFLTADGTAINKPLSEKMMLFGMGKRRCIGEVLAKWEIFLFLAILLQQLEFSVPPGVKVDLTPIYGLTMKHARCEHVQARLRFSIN
# [17] = Clearance in SCID-Beige mouse plasma at 1 mg/kg, iv measured upto 24 hrs by LC-MS/MS analysis; format: ADME, organism-based
# HCC1954 [18] = test: Antitumor activity against human HCC1954 cells xenografted in mouse assessed as tumor growth inhibition at 50 mg/kg, po QD; format: functional; details: read-out: TGI
# [19] = Oral bioavailability in Sprague-Dawley rat plasma at 5 mg/kg measured upto 8 hrs by LC-MS/MS method; format: ADME, organism-based
smiles,measurement,setting,value
C[C@H](Nc1ccc2c(c1)OCCn1cc(N3C(=O)OC[C@H]3C(F)F)nc1-2)C(N)=O [INAVOLISIB],inhibition in vivo at 25 mg/kg,HCC1954 [1],140%
same,inhibition at 10 µM,CaV1.2,< 20%
same,inhibition,Homo sapiens,> 80%
same,inhibition at 10 µM,NaV1.5,< 20%
same,pKa,[2],3.3
same,EC50,[3],0.01 µM
same,bioavailability,[4],45%
same,EC50,[5],0.019 µM
same,IC50,Cytochrome P450 2D6,> 10 µM
same,solubility thermodynamic,[6],38 µg/mL
same,inhibition,Mus musculus [7],Tde
same,inhibition at 10 µM,hERG (KCNH2),< 20%
same,IC50,[8],0.056 µM
same,inhibition,Mus musculus [9],Active
same,AUC at 8 h,[10],32.9 µM·h
same,inhibition,Mus musculus [11],Dde
same,solubility thermodynamic,[12],36 µg/mL
same,solubility thermodynamic,[13],1600 µg/mL
same,IC90,[14],0.276 µM
same,"fraction unbound at 4 h, 5 µM",[15],0.261
same,clearance,[16],86 mL/min/kg
same,IC50,Cytochrome P450 3A4,> 10 µM
same,IC50,Cytochrome P450 1A2,> 10 µM
same,clearance,[17],37 mL/min/kg
same,inhibition in vivo at 50 mg/kg,HCC1954 [18],149%
same,bioavailability,[19],58%
